Test results: patent US10457710B2, “Antimicrobial peptides, their variants and uses” (priority 2015, dated 2019)
Where a SMILES comes first, the peptide text is derived from it. [ ]: non-standard residue; d: D form.

How the values were obtained:
Type in all cases: cell-based
Candida albicans = test: MIC, clinical yeast strains; conditions: D-form peptide, concentrations tested 0.125 to 128 μg/ml
How it was run: (§1)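 Overnight MH agar colonies were suspended in MH broth to 5.0×10^5 cfu/ml, mixed with serial peptide dilutions (0.125–128 μg/ml) and incubated at 37° C for 20 to 24 hours. Yeast MICs were run the same way in potato dextrose broth, and wells were scored visually.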

C. parapsilosis = test: MIC, clinical yeast strains; conditions: D-form peptide, concentrations tested 0.125 to 128 μg/ml
How it was run: as §1

C. glabrata = test: MIC, clinical yeast strains; conditions: D-form peptide, concentrations tested 0.125 to 128 μg/ml
How it was run: as §1

[1] = tested on: clinical strains of Serratia marcescens; test: MIC, microdilution, clinical strains; conditions: 0.02% BSA, 0.2% acetic acid
How it was run: as §1

[2] = tested on: clinical strains of E. coli; test: MIC, microdilution, clinical strains; conditions: microdilution, Muller Hinton broth-cation adjusted, 0.02% BSA, 0.2% acetic acid
How it was run: as §1

[3] = tested on: clinical strains of Proteus mirabilis; test: MIC, microdilution, clinical strains; conditions: 0.02% BSA, 0.2% acetic acid
How it was run: as §1

[4] = tested on: clinical strains of S. pneumoniae; test: MIC, microdilution, clinical strains; conditions: 0.02% BSA, 0.2% acetic acid
How it was run: as §1

[5] = tested on: clinical strains of E. cloacae; test: MIC, microdilution, clinical strains; conditions: 0.02% BSA, 0.2% acetic acid
How it was run: as §1

[6] = tested on: clinical strains of K. pneumoniae; test: MIC, microdilution, clinical strains; conditions: 0.02% BSA, 0.2% acetic acid
How it was run: as §1

[7] = tested on: clinical strains of S. aureus; test: MIC, microdilution, clinical strains; conditions: 0.02% BSA, 0.2% acetic acid
How it was run: as §1

[8] = tested on: clinical strains of P. aeruginosa; test: MIC, microdilution, clinical strains; conditions: 0.02% BSA, 0.2% acetic acid
How it was run: as §1

[9] = tested on: clinical strains of Acinetobacter baumannii; test: MIC, microdilution, clinical strains; design: unit: μg/ml; conditions: 0.02% BSA, 0.2% acetic acid
Procedure: Minimum inhibition concetrations (MICs) were determined against Escherichia coli (ATCC 25922), Staphylococcus aureus (ATCC 25923), Klebsiella pneumoniae (ATCC 10031) and Pseudomonas aeruginosa (ATCC 27853). Also clinical strains of E. coli, K. pneumoniae, E. cloacae, P. aeruginosa, Serratia marcescens, Proteus mirabilis, S. pneumoniae, Acinetobacter baumannii, A. johnsonii and S. aureus were used for MICs assays. Additionally, clinical strains of yeast including Candida albicans, C. glabrata, C. parapsilosis and C. quillermondiae were used. The susceptibility of these microorganisms to Chain peptides were determined using micro broth dilution assay. Colonies of the respective microorganism from Muller Hinton (MH) agar plates incubated overnight were suspended in MH broth media and final concentration of microorganism was adjusted to 5.0×10^5 cfu/ml. An aliquot of 10 μl of each Chain peptide, or gentamicin, tetracycline as reference antibiotics were added in differing concentrations along with 90 μl of bacterial suspension to 96 well polypropylene plates and incubated at 37° C. for 20 to 24 hours. Concentrations of Chain peptides and reference antibiotics ranged from 0.125 to 128 μg/ml and the MICs were recorded as the lowest concentration with no visual growth of bacteria. Similarly, antifungal MICs were tested in Potato dextrose broth.
Clinical strains of yeasts including Candida albicans, C. glabrata, C. parapsilosis and C. quillermondiae were also tested with the 12 Chain peptides. The minimum inhibitory concentration (MICs) varied between these peptides and are presented in Tables 4a, 4b, 4c and 5a, 5b, 5c. Peptides Chain 105, 201 and 308 are broad spectrum antimicrobials with MICs between 0.5-32 μg/ml against all the bacteria and yeasts tested, except Serratia marcescens and Proteus mirabilis, against which the MICs were between 64-128 μg/ml. Peptide Chain 306 has narrow spectrum activity against E. coli at 1 μg/ml and for the rest of the bacterial strains at >32 μg/ml (FIG. 10c).

C. quillermondiae = test: MIC, clinical yeast strains; conditions: clinical yeast strain 1; D-form peptide; concentrations tested 0.125 to 128 μg/ml
How it was run: as §1

CC[C@@H](C)[C@@H](NC(=O)[C@@H](CC(C)C)NC(=O)[C@@H](CCCNC(=N)N)NC(=O)[C@H](N)CCCNC(=N)N)C(=O)N[C@H](Cc1c[nH]c2ccccc12)C(=O)N[C@H](CCCNC(=N)N)C(=O)N[C@H](CCCNC(=N)N)C(=O)N[C@H](Cc1ccccc1)C(=O)N[C@H](CCCCN)C(=O)N[C@H](Cc1c[nH]c2ccccc12)C(=O)N[C@H](CC(C)C)C(=O)N[C@H](CCCNC(=N)N)C(=O)O [Chain204D] (H-[dR][dR][dL][dI][dW][dR][dR][dF][dK][dW][dL][dR]-OH) was tested, and the “Minimum inhibitory concentration, Candida albicans strain 1” value (Candida albicans; clinical yeast strain 1) was 8, the “Minimum inhibitory concentration, Candida albicans strain 2” value (Candida albicans; clinical yeast strain 2) was 8 and the “Minimum inhibitory concentration, Candida albicans strain 3” value (Candida albicans; clinical yeast strain 3) was 8. The “Minimum inhibitory concentration, Candida albicans strain 4” value (Candida albicans; clinical yeast strain 4) was 8, the “Minimum inhibitory concentration, Candida albicans strain 5” value (Candida albicans; clinical yeast strain 5) was 8 and the “Minimum inhibitory concentration, C. parapsilosis strain 1” value (C. parapsilosis; clinical yeast strain 1) was 4. For the same compound, the “Minimum inhibitory concentration, C. parapsilosis strain 2” value (C. parapsilosis; clinical yeast strain 2) was 4, the “Minimum inhibitory concentration, C. parapsilosis strain 3” value (C. parapsilosis; clinical yeast strain 3) was 8 and the “Minimum inhibitory concentration, C. parapsilosis strain 4” value (C. parapsilosis; clinical yeast strain 4) was 8. For the same compound, the “Minimum inhibitory concentration, C. glabrata strain 1” value (C. glabrata; clinical yeast strain 1) was 4, the “Minimum inhibitory concentration, C. glabrata strain 2” value (C. glabrata; clinical yeast strain 2) was 8 and the “Minimum inhibitory concentration, C. glabrata strain 3” value (C. glabrata; clinical yeast strain 3) was 32. For the same compound, the “Minimum inhibitory concentration, C. glabrata strain 4” value (C. glabrata; clinical yeast strain 4) was 32, the Minimum inhibitory concentration ([1]; Serratia marcescens strain 1, Muller Hinton broth-cation adjusted) was over 128 and the Minimum inhibitory concentration ([1]; Serratia marcescens strain 2, Muller Hinton broth-cation adjusted) was over 128. For the same compound, the Minimum inhibitory concentration ([1]; Serratia marcescens strain 3, Muller Hinton broth-cation adjusted) was 128, the Minimum inhibitory concentration ([1]; Serratia marcescens strain 4, Muller Hinton broth-cation adjusted) was over 128 and the Minimum inhibitory concentration ([1]; Serratia marcescens strain 5, Muller Hinton broth-cation adjusted) was over 128. It also gave a Minimum inhibitory concentration ([2]; Escherichia coli strain 1) of 8, a Minimum inhibitory concentration ([2]; Escherichia coli strain 2) of 1 and a Minimum inhibitory concentration ([2]; Escherichia coli strain 3) of 1. For the same compound, the Minimum inhibitory concentration ([2]; Escherichia coli strain 4) was 1, the Minimum inhibitory concentration ([2]; Escherichia coli strain 5) was 1 and the Minimum inhibitory concentration ([3]; Proteus mirabilis strain 1, Muller Hinton broth-cation adjusted) was over 128. For the same compound, the Minimum inhibitory concentration ([3]; Proteus mirabilis strain 2, Muller Hinton broth-cation adjusted) was 32, the Minimum inhibitory concentration ([3]; Proteus mirabilis strain 3, Muller Hinton broth-cation adjusted) was 64 and the Minimum inhibitory concentration ([3]; Proteus mirabilis strain 4, Muller Hinton broth-cation adjusted) was over 128. It also gave a Minimum inhibitory concentration ([3]; Proteus mirabilis strain 5, Muller Hinton broth-cation adjusted) of over 128, a Minimum inhibitory concentration ([4]; Streptococcus pneumoniae strain 1, Muller Hinton broth-cation adjusted) of 4 and a Minimum inhibitory concentration ([4]; Streptococcus pneumoniae strain 2, Muller Hinton broth-cation adjusted) of 4. The Minimum inhibitory concentration ([4]; Streptococcus pneumoniae strain 3, Muller Hinton broth-cation adjusted) was 4, the Minimum inhibitory concentration ([4]; Streptococcus pneumoniae strain 4, Muller Hinton broth-cation adjusted) was 4 and the Minimum inhibitory concentration ([4]; Streptococcus pneumoniae strain 5, Muller Hinton broth-cation adjusted) was 4. The Minimum inhibitory concentration ([5]; Enterobacter cloacae strain 1, Muller Hinton broth-cation adjusted) was 4, the Minimum inhibitory concentration ([5]; Enterobacter cloacae strain 2, Muller Hinton broth-cation adjusted) was 8 and the Minimum inhibitory concentration ([5]; Enterobacter cloacae strain 3, Muller Hinton broth-cation adjusted) was 4. The Minimum inhibitory concentration ([5]; Enterobacter cloacae strain 4, Muller Hinton broth-cation adjusted) was 8, the Minimum inhibitory concentration ([5]; Enterobacter cloacae strain 5, Muller Hinton broth-cation adjusted) was 2 and the Minimum inhibitory concentration ([6]; Klebsiella pneumoniae strain 1, Muller Hinton broth-cation adjusted) was 8. It also gave a Minimum inhibitory concentration ([6]; Klebsiella pneumoniae strain 2, Muller Hinton broth-cation adjusted) of 4, a Minimum inhibitory concentration ([6]; Klebsiella pneumoniae strain 3, Muller Hinton broth-cation adjusted) of 16 and a Minimum inhibitory concentration ([6]; Klebsiella pneumoniae strain 4, Muller Hinton broth-cation adjusted) of 4. For the same compound, the Minimum inhibitory concentration ([6]; Klebsiella pneumoniae strain 5, Muller Hinton broth-cation adjusted) was 2, the Minimum inhibitory concentration ([7]; Staphylococcus aureus strain 1, Muller Hinton broth-cation adjusted) was 1 and the Minimum inhibitory concentration ([7]; Staphylococcus aureus strain 2, Muller Hinton broth-cation adjusted) was 2. It also gave a Minimum inhibitory concentration ([7]; Staphylococcus aureus strain 3, Muller Hinton broth-cation adjusted) of 2, a Minimum inhibitory concentration ([7]; Staphylococcus aureus strain 4, Muller Hinton broth-cation adjusted) of 1 and a Minimum inhibitory concentration ([7]; Staphylococcus aureus strain 5, Muller Hinton broth-cation adjusted) of 1. It also gave a Minimum inhibitory concentration ([8]; Pseudomonas aeruginosa strain 1, Muller Hinton broth-cation adjusted) of 4, a Minimum inhibitory concentration ([8]; Pseudomonas aeruginosa strain 2, Muller Hinton broth-cation adjusted) of 16 and a Minimum inhibitory concentration ([8]; Pseudomonas aeruginosa strain 3, Muller Hinton broth-cation adjusted) of 8. It also gave a Minimum inhibitory concentration ([8]; Pseudomonas aeruginosa strain 4, Muller Hinton broth-cation adjusted) of 8, a Minimum inhibitory concentration ([8]; Pseudomonas aeruginosa strain 5, Muller Hinton broth-cation adjusted) of 4 and a Minimum inhibitory concentration ([9]; Acinetobacter baumannii strain 1, Muller Hinton broth-cation adjusted) of 4. The Minimum inhibitory concentration ([9]; Acinetobacter baumannii strain 2, Muller Hinton broth-cation adjusted) was 4, the Minimum inhibitory concentration ([9]; Acinetobacter baumannii strain 3, Muller Hinton broth-cation adjusted) was 4 and the Minimum inhibitory concentration ([9]; Acinetobacter baumannii strain 4, Muller Hinton broth-cation adjusted) was 4. The Minimum inhibitory concentration ([9]; Acinetobacter baumannii strain 5, Muller Hinton broth-cation adjusted) was 4 and the “Minimum inhibitory concentration, C. quillermondiae strain 1” value (C. quillermondiae) was 4.
